Experimental data from patent US20230139328A1, “DOSAGE FORMS FOR IMPROVING ORGAN TRANSPLANTATION, GRAFT VERSUS HOST DISEASE AND STEM CELLS TRANSPLANTS” (Aphios Corporation, priority 2020, published 2023).

System: neutrophil migration across HUVEC
Assay: Neutrophil transendothelial migration (TEM) restoration studies with PKC inhibitors in HUVEC
Assay type: cell-based, human
Conditions: for restoration of PMN TEM in response to LTB4 after PKC activator treatment: PKC inhibitor 30 min (1, 10, 100 nM) then 100 nM Bryostatin-1 1 h
Experimental: HUVEC were pretreated with G0-6983, a PKC inhibitor with dose dependent specificities for classical vs. novel PKC isoforms for 30 minutes prior to addition of Bryostatin-1 (100 nM) to block neutrophil migration. […] Neutrophil migration towards 100 nM LTB4 was initiated by adding LTB4 to the lower well.
Neutrophil Transendothelial Migration (TEM) Restoration Studies: HUVECs were pretreated with Go-6983 (1, 10, 100 nM), or Go-6976 (1, 10,100 nM) for 30 minutes, then spiked with 100 nM Bryostatin-1 for 1 hour. HUVECs previously nucleofected with PKC-δ, -ε, or control siRNA were just treated in Bryostatin-1 for 1 hour. HUVECs were washed three times and placed in a new plate containing either 500 IL 100 nM LTB4, or HBSS alone for control. Neutrophils were allowed to migrate for 3 h at 37° C. Migration was stopped by removing the inserts and migration was measured using the MPO assay.
Myeloperoxidase Assay: Neutrophil migration was measured using myeloperoxidase (MPO) analysis. Cell culture inserts were first removed, and plates were spun at 1,500 RPM for 5 min. The supernatant was removed, and MPO activity was measured using TMB/peroxide as chromogen. The reaction was stopped with sulfuric acid and absorbance was read at 450 nm using a microplate reader. All experiments were performed n=6. Data was expressed as “% neutrophil migration”, which allowed cumulative statistical analysis to be done and account for unpreventable batch-to-batch variations.

Row | Structure (SMILES) | restoration of PMN TEM in response to LTB4 after PKC activator treatment | effect of inhibitor pretreatment on Bryostatin-1 mediated reduction in migration towards LTB4, 1 nM (1 nM inhibitor 30 min before 100 nM Bryostatin-1) | effect of inhibitor pretreatment on Bryostatin-1 mediated reduction in migration towards LTB4, 10 or 100 nM (10 or 100 nM inhibitor 30 min before 100 nM Bryostatin-1) | restoration of PMN TEM in response to LTB4 after PKC activator treatment (listed as G0-6983)
1 | CN[C@@H]1C[C@H]2O[C@@](C)([C@@H]1OC)n1c3ccccc3c3c4c(c5c6ccccc6n2c5c31)C(=O)NC4 [staurosporine] | did not restore PMN TEM |  |  | 
2 | CN(C)CCCn1cc(C2=C(c3c[nH]c4ccccc34)C(=O)NC2=O)c2ccccc21 [GF10923X] | did not restore PMN TEM |  |  | 
3 | COc1ccc2c(c1)c(C1=C(c3c[nH]c4ccccc34)C(=O)NC1=O)cn2CCCN(C)C [Go-6983] | dose dependently restored neutrophil migration | but not by 1 nM G06983 | prevented | dose dependently reversed
4 | Cn1c2ccccc2c2c3c(c4c5ccccc5n(CCC#N)c4c21)CNC3=O [GO-6976] | did not restore PMN TEM |  |  | 
5 | CC(=O)c1c(O)c(C)c(O)c(Cc2c(O)c3c(c(C(=O)/C=C/c4ccccc4)c2O)OC(C)(C)C=C3)c1O [Rottlerin] | did not restore PMN TEM |  |  | 
